Patent US8445680B2, “Tetrahydrothieno pyridines” (Merck Sharp & Dohme Corp., priority 2008, dated 2013)

What follows are compounds tested against T1, FLAG-tagged full length PHD2 (Homo sapiens, UniProt Q9GZT9) (assay: PHD2 inhibition assay (time resolved fluorescence, HIF-1α peptide hydroxylation, VHL detection)). Settings: 0.2 μM 2-oxoglutarate, 0.5 μM HIF-1α peptide, 2 hr at room temperature; read-out: PHD2 Activity (PHD2 binding activity expressed as IC50).
T1 construct: FLAG-tagged full length PHD2; FLAG; made in house; host or cells: baculovirus-infected Sf9 cells
T1 sequence (Q9GZT9 whole entry): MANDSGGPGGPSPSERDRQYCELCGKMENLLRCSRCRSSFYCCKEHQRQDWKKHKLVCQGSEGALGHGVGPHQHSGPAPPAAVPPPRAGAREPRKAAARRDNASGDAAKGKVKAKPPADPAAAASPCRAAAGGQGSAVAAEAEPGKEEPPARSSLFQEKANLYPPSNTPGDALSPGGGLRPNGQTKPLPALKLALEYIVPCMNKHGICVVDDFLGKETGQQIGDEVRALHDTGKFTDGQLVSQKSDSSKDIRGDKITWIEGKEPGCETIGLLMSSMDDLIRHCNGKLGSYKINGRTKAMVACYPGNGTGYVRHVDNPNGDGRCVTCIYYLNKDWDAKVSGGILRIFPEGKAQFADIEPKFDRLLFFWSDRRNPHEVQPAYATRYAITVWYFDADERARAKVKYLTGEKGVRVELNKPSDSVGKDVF
Format: biochemical
Description: To each well of a 96-well plate was added 1 μL of test compound in DMSO and 20 μl of assay buffer (50 mM Tris pH 7.4/0.01% Tween-20/0.1 mg/ml bovine serum albumin/10 μM ferrous sulfate/1 mM sodium ascorbate/20 μg/ml catalase) containing 0.15 μg/ml FLAG-tagged full length PHD2 expressed in and purified from baculovirus-infected Sf9 cells. After a 30 min preincubation at room temperature, the enzymatic reactions were initiated by the addition of 4 μL of substrates (final concentrations of 0.2 μM 2-oxoglutarate and 0.5 μM HIF-1α peptide biotinyl-[…]).
O=C(O)CNC(=O)c1c(O)c2c(n(Cc3cnc(-c4ccccc4C(F)(F)F)cn3)c1=O)CSC2 [Example 57, N-{[4-hydroxy-2-oxo-1-({5-[2-(trifluoromethyl)phenyl]pyrazin-2-yl}methyl)-1,2,5,7-tetrahydrothieno[3,4-b]pyridin-3-yl]carbonyl}glycine] gave an IC50 of at most 10 nM. Work on Cc1ccc(-c2ccc(Cn3c4c(c(O)c(C(=O)NCC(=O)O)c3=O)CS(=O)(=O)C4)cc2)cc1 [Example 58, N-({4-hydroxy-1-[(4′-methylbiphenyl-4-yl)methyl]-6,6-dioxido-2-oxo-1,2,5,7-tetrahydrothieno[3,4-b]pyridin-3-yl}carbonyl)glycine] yielded an IC50 of at most 10 nM. Cc1ccc(-c2ccc(Cn3c4c(c(O)c(C(=O)NCC(=O)O)c3=O)C[S+]([O-])C4)cc2)cc1 (stereo not shown) [Example 59, N-({4-hydroxy-1-[(4′-methylbiphenyl-4-yl)methyl]-6-oxido-2-oxo-1,2,5,7-tetrahydrothieno[3,4-b]pyridin-3-yl}carbonyl)glycine] showed an IC50 of at most 10 nM. With O=C(O)CNC(=O)c1c(O)c2c(n(Cc3ccc(Cl)cc3)c1=O)CS(=O)(=O)C2 [Example 60, N-{[1-(4-chlorobenzyl)-4-hydroxy-6,6-dioxido-2-oxo-1,2,5,7-tetrahydrothieno[3,4-b]pyridin-3-yl]carbonyl}glycine] the IC50 was at most 10 nM. In the case of CC(C)c1ccc(Cn2c3c(c(O)c(C(=O)NCC(=O)O)c2=O)CS(=O)(=O)C3)cc1 [Example 61, N-{[4-hydroxy-1-(4-isopropylbenzyl)-6,6-dioxido-2-oxo-1,2,5,7-tetrahydrothieno[3,4-b]pyridin-3-yl]carbonyl}glycine], the IC50 is reported as at most 10 nM. Work on O=C(O)CNC(=O)c1c(O)c2c(n(Cc3nc(-c4ccccc4)cs3)c1=O)CS(=O)(=O)C2 [Example 62, N-({4-hydroxy-6,6-dioxido-2-oxo-1-[(4-phenyl-1,3-thiazol-2-yl)methyl]-1,2,5,7-tetrahydrothieno[3,4-b]pyridin-3-yl}carbonyl)glycine] yielded an IC50 of 10 to 100 nM. O=C(O)CNC(=O)c1c(O)c2c(n(Cc3ccc(C(F)(F)F)cc3)c1=O)CS(=O)(=O)C2 [Example 63, N-({4-hydroxy-6,6-dioxido-2-oxo-1-[4-(trifluoromethyl)benzyl]-1,2,5,7-tetrahydrothieno[3,4-6]pyridin-3-yl}carbonyl)glycine] was tested, and the IC50 was at most 10 nM. For O=C(O)CNC(=O)c1c(O)c2c(n(Cc3ccc(-c4ccccc4)cc3)c1=O)CS(=O)(=O)C2 [Example 64, N-{[1-(biphenyl-4-ylmethyl)-4-hydroxy-6,6-dioxido-2-oxo-1,2,5,7-tetrahydrothieno[3,4-b]pyridin-3-yl]carbonyl}glycine], the IC50 was at most 10 nM. For O=C(O)CNC(=O)c1c(O)c2c(n(Cc3ccc(OC(F)(F)F)cc3)c1=O)CS(=O)(=O)C2 [Example 65, N-({4-hydroxy-6,6-dioxido-2-oxo-1-[4-(trifluoromethoxy)benzyl]-1,2,5,7-tetrahydrothieno[3,4-b]pyridin-3-yl}carbonyl)glycine], the IC50 was at most 10 nM. For CCc1ccc(Cn2c3c(c(O)c(C(=O)NCC(=O)O)c2=O)CS(=O)(=O)C3)cc1 [Example 66, N-{[1-(4-ethylbenzyl)-4-hydroxy-6,6-dioxido-2-oxo-1,2,5,7-tetrahydrothieno[3,4-b]pyridin-3-yl]carbonyl}glycine], the IC50 was at most 10 nM.
